In US20110136801A1, “Novel Compounds” (Dainippon Sumitomo Pharma Co. Ltd., priority 2009, published 2011) one finds EC50 data, which are given here for 23 compounds.

In the assay the target is T1, human TLR7 (Homo sapiens, UniProt Q9NYK1).
T1 construct: expressed in transfected cells; host or cells: HEK293 cell line stably expressing the pNiFty2-SEAP reporter plasmid; TLR7 in pUNO vector, blasticidin selection
T1 sequence (Q9NYK1 27-1049): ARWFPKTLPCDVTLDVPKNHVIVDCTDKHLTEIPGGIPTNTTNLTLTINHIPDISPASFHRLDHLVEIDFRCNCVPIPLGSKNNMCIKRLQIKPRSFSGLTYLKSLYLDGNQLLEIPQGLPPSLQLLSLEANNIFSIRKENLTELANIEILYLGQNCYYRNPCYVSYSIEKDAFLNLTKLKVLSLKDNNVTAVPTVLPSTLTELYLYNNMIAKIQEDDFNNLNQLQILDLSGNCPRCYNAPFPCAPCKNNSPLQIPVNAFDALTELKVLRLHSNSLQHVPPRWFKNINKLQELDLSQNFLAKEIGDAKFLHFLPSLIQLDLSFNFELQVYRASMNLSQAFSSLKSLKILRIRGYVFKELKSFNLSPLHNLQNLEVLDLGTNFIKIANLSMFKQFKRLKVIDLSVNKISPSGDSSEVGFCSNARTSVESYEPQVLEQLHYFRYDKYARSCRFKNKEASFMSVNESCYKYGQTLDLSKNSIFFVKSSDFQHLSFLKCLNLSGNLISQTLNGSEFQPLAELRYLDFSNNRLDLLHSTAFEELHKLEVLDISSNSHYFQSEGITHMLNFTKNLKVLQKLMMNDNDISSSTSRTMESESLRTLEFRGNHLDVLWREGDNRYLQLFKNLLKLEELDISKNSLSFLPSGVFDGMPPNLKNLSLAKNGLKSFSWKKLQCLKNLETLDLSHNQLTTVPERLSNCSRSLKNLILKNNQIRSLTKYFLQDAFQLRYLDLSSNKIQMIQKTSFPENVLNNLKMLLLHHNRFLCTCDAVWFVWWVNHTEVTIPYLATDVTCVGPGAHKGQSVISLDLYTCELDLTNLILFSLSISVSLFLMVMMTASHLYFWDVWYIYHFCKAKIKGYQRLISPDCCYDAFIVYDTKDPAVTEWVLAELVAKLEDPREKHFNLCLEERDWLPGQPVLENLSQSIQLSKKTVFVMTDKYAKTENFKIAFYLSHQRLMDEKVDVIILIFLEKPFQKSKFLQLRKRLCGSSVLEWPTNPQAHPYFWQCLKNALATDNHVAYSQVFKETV
The experiment in a line: Human TLR7 Assay (SEAP reporter in HEK293 cells).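 Further: Read-out is secreted alkaline phosphatase made under an NFkB/ELAM-1 composite promoter, reporting TLR7-triggered NFkB activation.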 The format is cell-based. The conditions noted are these: HEK293 cell line expressing human TLR7 and pNiFty2-SEAP reporter, overnight incubation at 37° C., 0.1% DMSO; read-out: hTLR7 EC50.
Description: The most common variant sequence of human TLR7 (represented by the EMBL sequence AF240467) was cloned into the mammalian cell expression vector pUNO and transfected into a HEK293 cell line already stably expressing the pNiFty2-SEAP reporter plasmid; integration of the reporter gene was maintained by selection with the antibiotic zeocin. Transfectants with stable TLR7 expression were selected using the antibiotic blasticidin. In this reporter cell-line, expression of secreted alkaline phosphatase (SEAP) is controlled by an NFkB/ELAM-1 composite promoter comprising five NFkB sites combined with the proximal ELAM-1 promoter. TLR signaling leads to the translocation of NFkB and activation of the promoter results in expression of the SEAP gene. TLR7-specific activation was assessed by determining the level of SEAP produced following overnight incubation of the cells at 37° C. with the standard compound in the presence of 0.1% (v/v) dimethylsulfoxide (DMSO). Concentration dependent induction of SEAP production by compounds was expressed as the concentration of compound which produced half of the maximal level of SEAP induction for that compound (EC50).
In the case of `CCCCc1nc2c(N)nc3ccccc3c2n1CCCN(Cc1ccc(OCC(=O)OC)cc1)C(=O)CN(C)C` [Example 5, Methyl (4-{[[3-(4-amino-2-butyl-1H-imidazo[4,5-c]quinolin-1-yl)propyl](N,N-dimethylglycyl)amino]methyl}phenoxy)acetate], the EC50 was determined as 247 nM.

Regarding `CCCCc1nc2c(N)nc3ccccc3c2n1CCCN(Cc1ccc(OCC(=O)OC)cc1)C(=O)CN1CCCCC1` [Example 6, Methyl (4-{[[3-(4-amino-2-butyl-1H-imidazo[4,5-c]quinolin-1-yl)propyl](piperidin-1-ylacetyl)amino]methyl}phenoxy)acetate], the EC50 was found to be 169 nM.

On to `CCCCc1nc2c(N)nc3ccccc3c2n1CCCN(Cc1ccc(OCC(=O)OC)cc1)C(=O)CN1CCN(C)CC1` [Example 7, Methyl [4-({[3-(4-amino-2-butyl-1H-imidazo[4,5-c]quinolin-1-yl)propyl][(4-methylpiperazin-1-yl)acetyl]amino}methyl)phenoxy]acetate], for which the EC50 stood at 633 nM.

In the case of `CCCCc1nc2c(N)nc3ccccc3c2n1CCCN(Cc1ccc(OCC(=O)OC)cc1)C(=O)CN1CCN(CCOC)CC1` [Example 8, Methyl {4-[([3-(4-amino-2-butyl-1H-imidazo[4,5-c]quinolin-1-yl)propyl]{[4-(2-methoxyethyl)piperazin-1-yl]acetyl}amino)methyl]phenoxy}acetate], the EC50 amounted to 904 nM.

Consider `CCCCc1nc2c(N)nc3ccccc3c2n1CCCN(Cc1cccc(OCC(=O)OC)c1)C(=O)CN1CCN(CCOC)CC1` [Example 12, Methyl {3-[([3-(4-amino-2-butyl-1H-imidazo[4,5-c]quinolin-1-yl)propyl]{[4-(2-methoxyethyl)piperazin-1-yl]acetyl}amino)methyl]phenoxy}acetate], for which the EC50 turned out to be 432 nM.

For `CCCCc1nc2c(N)nc3ccccc3c2n1CCCN(Cc1cccc(OCC(=O)OC)c1)C(=O)CN1CCCC1` [Example 13, Methyl (3-{[[3-(4-amino-2-butyl-1H-imidazo[4,5-c]quinolin-1-yl)propyl](pyrrolidin-1-ylacetyl)amino]methyl}phenoxy)acetate], the EC50 was determined as 136 nM.

Consider `CCCCc1nc2c(N)nc3ccccc3c2n1CCCN(Cc1cccc(OCC(=O)OC)c1)C(=O)CN(CC)CC` [Example 14, Methyl (3-{[[3-(4-amino-2-butyl-1H-imidazo[4,5-c]quinolin-1-yl)propyl](N,N-diethylglycyl)amino]methyl}phenoxy)acetate], for which the EC50 came to 73.6 nM.

For the compound `COCCc1nc2c(N)nc3ccccc3c2n1CCCNCc1cccc(OCC(=O)OC)c1` [Example 15, Methyl (3-{[[3-(4-amino-2-(2-methoxyethyl)-1H-imidazo[4,5-c]quinolin-1-yl)propyl]amino]methyl}phenoxy)acetate], the EC50 came to 181 nM.

For the compound `COCCc1nc2c(N)nc3ccccc3c2n1CCCN(Cc1cccc(OCC(=O)OC)c1)C(=O)CN(C)C` [Example 17, Methyl (3-{[[3-(4-amino-2-(2-methoxyethyl)-1H-imidazo[4,5-c]quinolin-1-yl)propyl](N,N-dimethylglycyl)amino]methyl}phenoxy)acetate], the EC50 is 349 nM.

Turning to `COCCc1nc2c(N)nc3ccccc3c2n1CCCN(Cc1cccc(OCC(=O)OC)c1)C(=O)CN1CCN(C)CC1` [Example 18, Methyl (3-{[[3-(4-amino-2-(2-methoxyethyl)-1H-imidazo[4,5-c]quinolin-1-yl)propyl][(4-methylpiperazin-1-yl)acetyl]amino]methyl}phenoxy)acetate], the EC50 is 1270 nM.

As for `COCCc1nc2c(N)nc3ccccc3c2n1CCCN(Cc1cccc(OCC(=O)OC)c1)C(=O)CN1CCCCC1` [Example 19, Methyl (3-{[[3-(4-amino-2-(2-methoxyethyl)-1H-imidazo[4,5-c]quinolin-1-yl)propyl](piperidin-1-ylacetyl)amino]methyl}phenoxy)acetate], the EC50 was found to be 178 nM.

Turning to `CCCCc1nc2c(N)nc3ccccc3c2n1CCCN(CCCN1CCOCC1)Cc1cccc(OCC(=O)OC)c1` [Example 21, Methyl (3-{[[3-(4-amino-2-butyl-1H-imidazo[4,5-c]quinolin-1-yl)propyl](3-morpholinopropyl)amino]methyl}phenoxy)acetate], the EC50 stood at 787 nM.

Consider `COCCc1nc2c(N)nc3ccccc3c2n1CCCNC(=O)N(CCCN(C)C)Cc1ccc(OCC(=O)OC)cc1` [Example 22, Methyl [4-({[({3-[4-amino-2-(2-methoxyethyl)-1H-imidazo[4,5-c]quinolin-1-yl]propyl}amino)carbonyl][3-(dimethylamino)propyl]amino}methyl)phenoxy]acetate], for which the EC50 is 188 nM.

On to `CCOC(=O)COc1cccc(CN(CCCn2c(CCOC)nc3c(N)nc4ccccc4c32)C(=O)CN(CC)CC)c1` [Example 25, Ethyl 2-{3-[(N-{3-[4-amino-2-(2-methoxyethyl)-1H-imidazo[4,5-c]quinolin-1-yl]propyl}-2-(diethylamino)acetamido)methyl]phenoxy}acetate], for which the EC50 stood at 58.7 nM.

With `CCCOC(=O)COc1cccc(CN(CCCn2c(CCOC)nc3c(N)nc4ccccc4c32)C(=O)CN(CC)CC)c1` [Example 26, Propyl 2-{3-[(N-{3-[4-amino-2-(2-methoxyethyl)-1H-imidazo[4,5-c]quinolin-1-yl]propyl}-2-(diethylamino)acetamido)methyl]phenoxy}acetate], the EC50 came to 54.6 nM.

In the case of `CCN(CC)CC(=O)N(CCCn1c(CCOC)nc2c(N)nc3ccccc3c21)Cc1cccc(OCC(=O)OCC(C)C)c1` [Example 28, Isobutyl 2-{3-[(N-{3-[4-amino-2-(2-methoxyethyl)-1H-imidazo[4,5-c]quinolin-1-yl]propyl}-2-(diethylamino)acetamido)methyl]phenoxy}acetate], the EC50 amounted to 49.9 nM.

`CCN(CC)CC(=O)N(CCCn1c(CCOC)nc2c(N)nc3ccccc3c21)Cc1cccc(OCC(=O)OCCOC)c1` [Example 29, 2-Methoxyethyl 2-{3-[(N-{3-[4-amino-2-(2-methoxyethyl)-1H-imidazo[4,5-c]quinolin-1-yl]propyl}-2-(diethylamino)acetamido)methyl]phenoxy}acetate]: the EC50 came to 174 nM.

In the case of `CCN(CC)CC(=O)N(CCCn1c(CCOC)nc2c(N)nc3ccccc3c21)Cc1cccc(OCC(=O)OCCO)c1` [Example 30, 2-Hydroxyethyl 2-{3-[(N-{3-[4-amino-2-(2-methoxyethyl)-1H-imidazo[4,5-c]quinolin-1-yl]propyl}-2-(diethylamino)acetamido)methyl]phenoxy}acetate], the EC50 came out at 1460 nM.

Turning to `CCOC(=O)COc1cccc(CN(CCCn2c(CCOC)nc3c(N)nc4ccccc4c32)C(=O)CN2CCCC2)c1` [Example 31, Ethyl 2-{3-[(N-{3-[4-amino-2-(2-methoxyethyl)-1H-imidazo[4,5-c]quinolin-1-yl]propyl}-2-(pyrrolidin-1-yl)acetamido)methyl]phenoxy}acetate], the EC50 came to 150 nM.

For the compound `CCOC(=O)COc1cccc(CN(CCCn2c(CCOC)nc3c(N)nc4ccccc4c32)C(=O)CN2CCCCC2)c1` [Example 32, Ethyl 2-{3-[(N-{3-[4-amino-2-(2-methoxyethyl)-1H-imidazo[4,5-c]quinolin-1-yl]propyl}-2-(piperidin-1-yl)acetamido)methyl]phenoxy}acetate], the EC50 stood at 177 nM.

On to `CCOC(=O)COc1cccc(CN(CCCn2c(CCOC)nc3c(N)nc4ccccc4c32)C(=O)CN(C)C)c1` [Example 33, Ethyl 2-{3-[(N-{3-[4-amino-2-(2-methoxyethyl)-1H-imidazo[4,5-c]quinolin-1-yl]propyl}-2-(dimethylamino)acetamido)methyl]phenoxy}acetate], for which the EC50 was 177 nM.

In the case of `CCN(CC)CC(=O)N(CCCn1c(CCOC)nc2c(N)nc3ccccc3c21)Cc1ccc(OCC(=O)OC)cc1` [Example 36, Methyl 2-{4-[(N-{3-[4-amino-2-(2-methoxyethyl)-1H-imidazo[4,5-c]quinolin-1-yl]propyl}-2-(diethylamino)acetamido)methyl]phenoxy}acetate], the concentration giving a half-maximal response (EC50) amounted to 84.5 nM.

On to `CCOC(=O)COc1ccc(CN(CCCn2c(CCOC)nc3c(N)nc4ccccc4c32)C(=O)CN(CC)CC)cc1` [Example 37, Ethyl 2-{4-[(N-{3-[4-amino-2-(2-methoxyethyl)-1H-imidazo[4,5-c]quinolin-1-yl]propyl}-2-(diethylamino)acetamido)methyl]phenoxy}acetate], for which the EC50 is 38.3 nM.
